Results as given in US20230103791A1 (GLAXOSMITHKLINE INTELLECTUAL PROPERTY DEVELOPMENT LIMITED, priority 2019, published 2023).
Like-named read-outs stand apart in the source and are kept apart here.

Molecular target: T1, human Nav1.8 (Homo sapiens, UniProt Q9Y5Y9)
T1 construct: expressed in transfected cells; host or cells: HEK293 (HEK293-Nav1.8)
Test: Nav1.8 sodium channels assay, QPatch 48 HTX electrophysiology in HEK293-Nav1.8 cells
Type: cell-based
In short: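 IC50 came from 6-8 point curves of P2 current amplitude, normalized to baseline and a positive reference, and corrected for run-down using vehicle-only wells. Automated patch clamp used HEK293-Nav1.8 (with Navβ1 and TREK1) at pH 7.4 outside and CsF-based solution inside. An 8 s inactivating step at −46 mV preceded the 0 mV test pulse, repeated at 0.07 Hz.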

[1] = at least one set of experimental runs, read-out: average pIC50 value against Nav1.8 (converted)
[2] = Table 1, HEK293-Nav1.8, QPatch 48 HTX, half inactivation state voltage protocol (V1/2), single run or average of two or more runs, read-out: Nav1.8 pIC50 (converted)

T1 sequence (Q9Y5Y9 whole entry): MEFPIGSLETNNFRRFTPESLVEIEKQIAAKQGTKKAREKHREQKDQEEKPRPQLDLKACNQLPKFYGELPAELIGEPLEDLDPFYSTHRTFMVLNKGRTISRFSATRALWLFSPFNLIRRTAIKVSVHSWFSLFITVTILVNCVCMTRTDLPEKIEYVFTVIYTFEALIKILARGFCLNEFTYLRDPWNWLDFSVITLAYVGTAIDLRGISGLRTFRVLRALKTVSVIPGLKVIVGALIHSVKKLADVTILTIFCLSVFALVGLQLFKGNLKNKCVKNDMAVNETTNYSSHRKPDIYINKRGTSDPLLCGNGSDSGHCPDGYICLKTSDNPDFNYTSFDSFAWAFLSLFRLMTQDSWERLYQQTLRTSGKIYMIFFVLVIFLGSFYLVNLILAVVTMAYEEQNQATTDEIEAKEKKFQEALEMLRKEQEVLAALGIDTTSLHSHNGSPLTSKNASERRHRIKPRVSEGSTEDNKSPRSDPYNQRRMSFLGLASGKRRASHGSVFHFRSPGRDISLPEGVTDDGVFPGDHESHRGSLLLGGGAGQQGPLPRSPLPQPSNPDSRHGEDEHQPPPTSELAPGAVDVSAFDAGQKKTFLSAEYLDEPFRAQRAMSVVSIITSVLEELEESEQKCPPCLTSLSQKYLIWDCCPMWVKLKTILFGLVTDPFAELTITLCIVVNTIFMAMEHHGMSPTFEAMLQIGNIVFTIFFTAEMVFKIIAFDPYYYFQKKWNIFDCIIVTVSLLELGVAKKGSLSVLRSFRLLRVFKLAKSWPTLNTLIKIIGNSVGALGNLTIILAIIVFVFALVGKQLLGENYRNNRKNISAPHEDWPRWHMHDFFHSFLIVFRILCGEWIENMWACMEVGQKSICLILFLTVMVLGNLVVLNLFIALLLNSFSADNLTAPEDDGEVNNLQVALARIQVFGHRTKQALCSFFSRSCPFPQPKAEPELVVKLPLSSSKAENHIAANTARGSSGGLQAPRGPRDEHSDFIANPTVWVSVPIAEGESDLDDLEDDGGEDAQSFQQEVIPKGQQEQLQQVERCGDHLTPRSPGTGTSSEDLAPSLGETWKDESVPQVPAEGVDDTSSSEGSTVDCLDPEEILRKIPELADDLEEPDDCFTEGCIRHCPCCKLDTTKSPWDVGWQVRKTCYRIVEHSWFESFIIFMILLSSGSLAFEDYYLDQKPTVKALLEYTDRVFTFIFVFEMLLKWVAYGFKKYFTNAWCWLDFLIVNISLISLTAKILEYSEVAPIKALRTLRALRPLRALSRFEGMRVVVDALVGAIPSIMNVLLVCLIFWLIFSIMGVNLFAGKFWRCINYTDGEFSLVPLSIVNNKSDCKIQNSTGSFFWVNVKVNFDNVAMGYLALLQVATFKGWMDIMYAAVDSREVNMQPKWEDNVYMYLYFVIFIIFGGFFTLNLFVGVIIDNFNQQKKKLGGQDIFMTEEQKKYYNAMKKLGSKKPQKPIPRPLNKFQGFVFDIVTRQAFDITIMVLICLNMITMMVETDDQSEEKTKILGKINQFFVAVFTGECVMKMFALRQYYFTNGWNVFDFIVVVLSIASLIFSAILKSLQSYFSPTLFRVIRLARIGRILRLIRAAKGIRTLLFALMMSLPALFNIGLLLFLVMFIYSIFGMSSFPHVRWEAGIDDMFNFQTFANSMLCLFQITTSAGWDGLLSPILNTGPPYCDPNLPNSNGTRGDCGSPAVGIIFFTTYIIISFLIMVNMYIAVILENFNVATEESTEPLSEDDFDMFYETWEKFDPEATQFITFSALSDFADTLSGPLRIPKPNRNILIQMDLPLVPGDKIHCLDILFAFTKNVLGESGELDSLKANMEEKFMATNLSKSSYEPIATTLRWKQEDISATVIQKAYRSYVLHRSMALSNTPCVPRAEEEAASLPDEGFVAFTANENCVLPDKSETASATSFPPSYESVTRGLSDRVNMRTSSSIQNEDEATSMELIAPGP
T1 sequence (Q07699 19-218 partner): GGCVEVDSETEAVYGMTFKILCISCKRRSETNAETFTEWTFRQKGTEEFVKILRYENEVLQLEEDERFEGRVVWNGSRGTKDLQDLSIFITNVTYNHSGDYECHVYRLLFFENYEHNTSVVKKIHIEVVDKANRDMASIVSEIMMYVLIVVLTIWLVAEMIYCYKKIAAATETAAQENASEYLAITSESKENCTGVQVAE

IC50 [1] | IC50 [2] | Compound
≤ 100 nM | – | CC1=C(N2CN(c3ccc(F)cc3C)c3cc(C(F)(F)F)ccc3C2=O)CCC(=O)N1 [Example 269, 1-(4-fluoro-2-methylphenyl)-3-(2-methyl-6-oxo-1,4,5,6-tetrahydropyridin-3-yl)-7-(trifluoromethyl)-2,3-dihydroquinazolin-4(1H)-one]
– | 6310 nM | O=C1c2ccc(C(F)(F)F)cc2N(c2ccc(F)cc2OCCO)CN1c1ccc(=O)[nH]c1 [drawing 277, 1-(4-fluoro-2-(2-hydroxyethoxy)phenyl)-3-(6-oxo-1,6-dihydropyridin-3-yl)-7-(trifluoromethyl)-2,3-dihydroquinazolin-4(1H)-one]
794 to 7940 nM | – | Cc1cc(F)ccc1N1CN(c2ccc(C(N)=O)[n+]([O-])c2)C(=O)c2c1ccc(Cl)c2F [Example 248, 2-carbamoyl-5-(6-chloro-5-fluoro-1-(4-fluoro-2-methylphenyl)-4-oxo-1,4-dihydroquinazolin-3(2H)-yl)pyridine 1-oxide]
794 to 7940 nM | – | Cc1cc(F)ccc1N1CN(c2c(Cl)cc(=O)[nH]c2C)C(=O)c2cc(Cl)ccc21 [Example 232, 6-chloro-3-(4-chloro-2-methyl-6-oxo-1,6-dihydropyridin-3-yl)-1-(4-fluoro-2-methylphenyl)-2,3-dihydroquinazolin-4(1H)-one]
126 to 631 nM | – | Cc1cc(F)ccc1N1CN(c2ccc(=O)n(C)c2C)C(=O)c2cc(C(F)(F)F)ccc21 [Example 209, 3-(1,2-dimethyl-6-oxo-1,6-dihydropyridin-3-yl)-1-(4-fluoro-2-methylphenyl)-6-(trifluoromethyl)-2,3-dihydroquinazolin-4(1H)-one]
126 to 631 nM | – | Cc1cc(=O)[nH]c(C)c1N1CN(c2ccc(F)cc2C(C)C)c2cc(C(F)(F)F)ccc2C1=O (single isomer, unassigned) [Example 290, 3-(2,4-dimethyl-6-oxo-1,6-dihydropyridin-3-yl)-1-(4-fluoro-2-isopropylphenyl)-7-(trifluoromethyl)-2,3-dihydroquinazolin-4(1H)-one]
– | 2510 nM | Cc1ncccc1N1CN(c2ccc(=O)[nH]c2C)C(=O)c2ccc(C(F)(F)F)cc21 [drawing 289, 3-(2-methyl-6-oxo-1,6-dihydropyridin-3-yl)-1-(2-methylpyridin-3-yl)-7-(trifluoromethyl)-2,3-dihydroquinazolin-4(1H)-one]
– | 12.6 nM | Cc1cc(F)ccc1N1CN(c2ccc(=O)[nH]c2C)C(=O)c2cc(C(F)(F)F)ccc21 [drawing 305, 1-(4-fluoro-2-methylphenyl)-3-(2-methyl-6-oxo-1,6-dihydropyridine-3-yl)-6-(trifluoromethyl)-2,3-dihydroquinazolin-4(1H)-one]
– | 6310 nM | Cc1cc(F)ccc1N1CN(c2ccc(=O)[nH]c2)C(=O)c2ccc(C(F)(F)F)c(Cl)c21 [drawing 282, 8-chloro-1-(4-fluoro-2-methylphenyl)-3-(6-oxo-1,6-dihydropyridin-3-yl)-7-(trifluoromethyl)-2,3-dihydroquinazolin-4(1H)-one]
≤ 100 nM | – | Cc1[nH]c(=O)ccc1N1CN([C@H]2CCCC[C@@H]2C)c2cc(C(F)(F)F)ccc2C1=O [Example 279, 3-(2-Methyl-6-oxo-1,6-dihydropyridin-3-yl)-1-((1S,2S)-2-methylcyclohexyl)-7-(trifluoromethyl)-2,3-dihydroquinazolin-4(1H)-one]
– | 2510 nM | Cc1cc(F)cc(C)c1N1CN(c2ccc(=O)[nH]c2)C(=O)c2ccc(C(F)(F)F)cc21 [drawing 270, 1-(4-fluoro-2,6-dimethylphenyl)-3-(6-oxo-1,6-dihydropyridin-3-yl)-7-(trifluoromethyl)-2,3-dihydroquinazolin-4(1H)-one]

The remaining lines, values behind:

Compound | IC50 [1] | IC50 [2]
Cc1[nH]c(=O)ccc1N1CN(c2ccc(F)cc2C2CC2)c2cc(C(F)(F)F)ccc2C1=O [Example 182, 1-(2-cyclopropyl-4-fluorophenyl)-3-(2-methyl-6-oxo-1,6-dihydropyridin-3-yl)-7-(trifluoromethyl)-2,3-dihydroquinazolin-4(1H)-one] | ≤ 100 nM | –
COc1ncc(N2CN(c3ccc(F)cc3C)c3cc(C(F)(F)F)ccc3C2=O)cn1 [Example 3, 1-(4-fluoro-2-methylphenyl)-3-(2-methoxypyrimidin-5-yl)-7-(trifluoromethyl)-2,3-dihydroquinazolin-4(1H)-one] | 794 to 7940 nM | –
Cc1cc(F)ccc1N1CN(C2CCC(=O)NC2=O)C(=O)c2cc(C(F)(F)F)ccc21 (stereo not drawn) [Example 34, 3-(1-(4-fluoro-2-methylphenyl)-4-oxo-6-(trifluoromethyl)-1,4-dihydroquinazolin-3(2H)-yl)piperidine-2,6-dione] | 126 to 631 nM | –
Cc1cc(F)ccc1N1CN(c2cnc(=O)[nH]c2C)C(=O)c2ccc(C(F)(F)F)cc21 [Example 115, 1-(4-fluoro-2-methylphenyl)-3-(6-methyl-2-oxo-1,2-dihydropyrimidin-5-yl)-7-(trifluoromethyl)-2,3-dihydroquinazolin-4(1H)-one] | ≤ 100 nM | –
Cc1cc(F)ccc1N1CN(c2ccc(=O)[nH]c2C)C(=O)c2cc(F)c(C(F)F)cc21 [Example 70, 7-(difluoromethyl)-6-fluoro-1-(4-fluoro-2-methylphenyl)-3-(2-methyl-6-oxo-1,6-dihydropyridin-3-yl)-2,3-dihydroquinazolin-4(1H)-one] | ≤ 100 nM | –
Cc1c[nH]c(=O)cc1N1CN(c2ccc(F)cc2C)c2cc(C(F)(F)F)ccc2C1=O [Example 54, 1-(4-fluoro-2-methylphenyl)-3-(5-methyl-2-oxo-1,2-dihydropyridin-4-yl)-7-(trifluoromethyl)-2,3-dihydroquinazolin-4(1H)-one] | 794 to 7940 nM | –
COc1cc(C)ccc1N1CN(c2ccc(=O)[nH]c2C)C(=O)c2cc(Cl)ccc21 [Example 134, 6-chloro-1-(2-methoxy-4-methylphenyl)-3-(2-methyl-6-oxo-1,6-dihydropyridin-3-yl)-2,3-dihydroquinazolin-4(1H)-one] | 126 to 631 nM | –
Cc1[nH]c(=O)ccc1N1CN(c2ccc(F)cc2C(C)C)c2ccc(F)cc2C1=O [Example 180, 6-fluoro-1-(4-fluoro-2-isopropylphenyl)-3-(2-methyl-6-oxo-1,6-dihydropyridin-3-yl)-2,3-dihydroquinazolin-4(1H)-one] | ≤ 100 nM | –
CNc1ccc2c(c1)N(c1ccc(F)cc1C)CN(c1ccc(=O)[nH]c1C)C2=O [Example 67, 1-(4-fluoro-2-methylphenyl)-3-(2-methyl-6-oxo-1,6-dihydropyridin-3-yl)-7-(methylamino)-2,3-dihydroquinazolin-4(1H)-one] | 126 to 631 nM | –
Cc1cc(F)ccc1N1CN(c2cc(=O)[nH]c(=O)[nH]2)C(=O)c2ccc(C(F)(F)F)cc21 [Example 59, 6-(1-(4-fluoro-2-methylphenyl)-4-oxo-7-(trifluoromethyl)-1,4-dihydroquinazolin-3(2H)-yl)pyrimidine-2,4(1H,3H)-dione] | 794 to 7940 nM | –
Cc1cc(OC(F)F)ccc1N1CN(c2ccc(=O)[nH]c2C)C(=O)c2cc(C(F)(F)F)ccc21 [Example 189, 1-(4-(difluoromethoxy)-2-methylphenyl)-3-(2-methyl-6-oxo-1,6-dihydropyridin-3-yl)-6-(trifluoromethyl)-2,3-dihydroquinazolin-4(1H)-one] | ≤ 100 nM | –
Cc1cc(N2CN(c3ccc(F)cc3C)c3ccc(C(F)(F)F)cc3C2=O)c[n+]([O-])c1 [Example 255, 3-(1-(4-fluoro-2-methylphenyl)-4-oxo-6-(trifluoromethyl)-1,4-dihydroquinazolin-3(2H)-yl)-5-methylpyridine 1-oxide] | 794 to 7940 nM | –
Cc1cc(F)ccc1N1CN(c2ccc[nH]c2=O)C(=O)c2ccc(C(F)(F)F)cc21 [Example 204, 1-(4-fluoro-2-methylphenyl)-3-(2-oxo-1,2-dihydropyridin-3-yl)-7-(trifluoromethyl)-2,3-dihydroquinazolin-4(1H)-one] | 794 to 7940 nM | –
COc1cc(F)ccc1N1CN(c2ccc(=O)[nH]c2C)C(=O)c2cc(F)c(F)cc21 [Example 132, 6,7-difluoro-1-(4-fluoro-2-methoxyphenyl)-3-(2-methyl-6-oxo-1,6-dihydropyridin-3-yl)-2,3-dihydroquinazolin-4(1H)-one] | 126 to 631 nM | –
CCOc1cc(F)ccc1N1CN(c2ccc(=O)[nH]c2C)C(=O)c2cc(Cl)ccc21 [Example 68, 6-chloro-1-(2-ethoxy-4-fluorophenyl)-3-(2-methyl-6-oxo-1,6-dihydropyridin-3-yl)-2,3-dihydroquinazolin-4(1H)-one] | 126 to 631 nM | –
Cc1cc(F)ccc1N1CN(c2ccc(=O)[nH]c2C)C(=O)c2cccc(C)c21 [Example 125, 1-(4-fluoro-2-methylphenyl)-8-methyl-3-(2-methyl-6-oxo-1,6-dihydropyridin-3-yl)-2,3-dihydroquinazolin-4(1H)-one] | 794 to 7940 nM | –
CCc1[nH]c(=O)ccc1N1CN(c2ccc(F)cc2C(C)C)c2ccc(Cl)cc2C1=O [Example 139, 6-chloro-3-(2-ethyl-6-oxo-1,6-dihydropyridin-3-yl)-1-(4-fluoro-2-isopropylphenyl)-2,3-dihydroquinazolin-4(1H)-one] | ≤ 100 nM | –
Cc1cc(=O)[nH]c(C)c1N1CN(c2ccc(F)cc2C(C)C)c2cc(C(F)(F)F)ccc2C1=O [Example 62, 3-(2,4-dimethyl-6-oxo-1,6-dihydropyridin-3-yl)-1-(4-fluoro-2-isopropylphenyl)-7-(trifluoromethyl)-2,3-dihydroquinazolin-4(1H)-one] | 794 to 7940 nM | –
Cc1cc(F)ccc1N1CN(c2cnc(=O)[nH]c2)C(=O)c2ccc(C(F)(F)F)cc21 [Example 145, 1-(4-fluoro-2-methylphenyl)-3-(2-oxo-1,2-dihydropyrimidin-5-yl)-7-(trifluoromethyl)-2,3-dihydroquinazolin-4(1H)-one] | 126 to 631 nM | –
